# Test results taken from patent US20240182445A1 (ONO PHARMACEUTICAL CO., LTD., priority 2019, published 2024).
# “Also recorded” adds a separate entry of the source.
# Key:
# [1] = Rat brain homogenate binding (BHB); format: in vitro ADME
# Procedure: (§1) These assays were performed according to known methods as generally described in the following references: Conde-Ceide et al. ACS Med. Chem. Lett. 2015, 6, 716-720; Morris et al. J. Med. Chem. 2014, 57, 10192-10197; and Bubser et al. ACS Chem. Neurosci. 2014, 5, 920-942. Abbreviations which have been used in the descriptions of the following tables are; PPB is plasma protein binding; BHB is brain homogenate binding; and CLint is intrinsic clearance in hepatic microsomes.
# [2] = Mouse hepatic microsomal intrinsic clearance; format: in vitro ADME; settings: mouse hepatic microsomes
# Procedure: as §1
# [3] = molecular target: CYP3A4 (Homo sapiens, UniProt P08684); assay: P450 inhibition 3A4; format: in vitro ADME
# Procedure: as §1
# [4] = molecular target: CYP2D6 (Homo sapiens, UniProt P10635); assay: P450 inhibition 2D6; format: in vitro ADME
# Procedure: as §1
# [5] = system: MK-801-induced deficits in the Novel Object Recognition Task; assay: MK-801-induced novel object recognition test; format: in vivo, Sprague-Dawley rats; settings: rats; 0.1 mg/kg, 0.3 mg/kg and 1 mg/kg; MK-801 0.2 mg/kg
# Procedure: The term “MK-801-induced novel object recognition test” herein refers to the experiment to evaluate in vivo efficacy in the schizophrenic cognitive impairment animal model. The detail method is described below. MK-801 is also known as dizocilpine.
# MK-801-Induced Novel Object Recognition Test:
# Testing was performed using 6-week-old male Sprague Dawley rats. On the testing day, rats were habituated at the empty box for 10 minutes individually. The disclosed compound was administered orally 1 h prior, followed by administration of MK-801 (0.2 mg/kg, s.c.) 30 min prior to the acquisition trial for 10 min. The retention trial for 10 min was performed with the intertrial interval for 80 min. The rat was allowed to explore the same objects in the acquisition trial. In the retention trial, one of the objects used in the acquisition trial was replaced with a novel one. The exploration time of licking, sniffing or touching was measured in the retention trial. Efficacy of each compound at the dose of 0.3, 1, 3 or 10 mg/kg p.o. (n=12-15) was determined by the recognition index (exploration time to the novel object/total exploration time). The scores of MK-801/vehicle and MK-801/compound-treated groups were statistically analyzed by Dunnett's test.
# MK-801 induced disruptions of Novel Object Recognition
# Drugs: Test compounds were formulated in 10% Tween 80/90% sterile water vehicle. […]
# [6] = Rat in vivo pharmacokinetics and brain distribution (i.v. cassette); settings: iv, rat i.v. cassette injection
# Procedure: Compound 12 was tested in several in vivo assays to investigate pharmacokinetics and brain distribution. Abbreviations which have been used in the descriptions of following tables are; CLp is plasma clearance; Vss is volume of distribution at steady state; Elim. t1/2 is half-life for elimination; Kp is tissue distribution partition coefficient; Kp,uu is unbound tissue distribution partition coefficient.
# [7] = system: plasma protein; assay: Mouse plasma protein binding (PPB); format: in vitro ADME
# Procedure: as §1
# [8] = system: plasma protein; assay: Rat plasma protein binding (PPB); format: in vitro ADME
# Procedure: as §1
# [9] = molecular target: CYP2C9 (Homo sapiens, UniProt P11712); assay: P450 inhibition 2C9; format: in vitro ADME
# Procedure: as §1
# [10] = Rat hepatic microsomal intrinsic clearance; format: in vitro ADME; settings: rat hepatic microsomes
# Procedure: as §1
# Sequence of CYP2C9 (P11712 whole entry): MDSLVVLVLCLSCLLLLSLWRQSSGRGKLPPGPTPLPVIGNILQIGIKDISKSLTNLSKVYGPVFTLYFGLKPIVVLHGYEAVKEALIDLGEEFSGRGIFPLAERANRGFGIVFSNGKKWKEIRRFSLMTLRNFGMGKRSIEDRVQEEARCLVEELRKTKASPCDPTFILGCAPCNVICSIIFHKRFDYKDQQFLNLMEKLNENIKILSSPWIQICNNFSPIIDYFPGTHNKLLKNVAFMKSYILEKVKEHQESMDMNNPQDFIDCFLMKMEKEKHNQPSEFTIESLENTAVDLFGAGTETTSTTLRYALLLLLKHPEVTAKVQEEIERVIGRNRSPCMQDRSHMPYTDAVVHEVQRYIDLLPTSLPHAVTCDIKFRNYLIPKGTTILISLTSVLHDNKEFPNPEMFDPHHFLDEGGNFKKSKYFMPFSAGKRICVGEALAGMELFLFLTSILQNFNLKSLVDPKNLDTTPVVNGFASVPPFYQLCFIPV
# Sequence of CYP2D6 (P10635 whole entry): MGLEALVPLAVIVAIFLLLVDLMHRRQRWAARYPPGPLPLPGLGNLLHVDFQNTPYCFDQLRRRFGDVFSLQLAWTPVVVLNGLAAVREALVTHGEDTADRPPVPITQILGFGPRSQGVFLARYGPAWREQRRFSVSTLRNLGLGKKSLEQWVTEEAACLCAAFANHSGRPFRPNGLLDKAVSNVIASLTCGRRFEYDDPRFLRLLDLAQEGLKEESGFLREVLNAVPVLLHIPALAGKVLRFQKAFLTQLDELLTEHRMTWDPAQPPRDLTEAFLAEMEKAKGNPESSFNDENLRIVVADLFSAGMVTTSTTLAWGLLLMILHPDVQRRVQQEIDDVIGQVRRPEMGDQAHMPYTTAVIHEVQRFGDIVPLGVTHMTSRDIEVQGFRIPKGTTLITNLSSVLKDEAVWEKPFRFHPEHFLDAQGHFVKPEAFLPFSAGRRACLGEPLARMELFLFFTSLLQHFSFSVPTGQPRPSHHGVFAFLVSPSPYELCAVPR
# Sequence of CYP3A4 (P08684 whole entry): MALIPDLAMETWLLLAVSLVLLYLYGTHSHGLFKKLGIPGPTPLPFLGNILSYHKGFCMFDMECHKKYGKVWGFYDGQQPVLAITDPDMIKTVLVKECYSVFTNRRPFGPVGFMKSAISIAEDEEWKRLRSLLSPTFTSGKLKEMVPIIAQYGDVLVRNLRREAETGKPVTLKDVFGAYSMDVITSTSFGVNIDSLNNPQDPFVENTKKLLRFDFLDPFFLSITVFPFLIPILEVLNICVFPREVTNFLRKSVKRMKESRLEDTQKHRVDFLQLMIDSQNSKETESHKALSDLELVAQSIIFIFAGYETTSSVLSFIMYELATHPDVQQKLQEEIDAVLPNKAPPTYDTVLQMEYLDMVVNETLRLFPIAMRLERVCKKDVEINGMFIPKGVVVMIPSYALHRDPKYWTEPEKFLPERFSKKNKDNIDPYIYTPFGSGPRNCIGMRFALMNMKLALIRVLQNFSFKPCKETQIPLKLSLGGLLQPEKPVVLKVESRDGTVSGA
smiles,measurement,setting,value
"CC(=O)N[C@H]1CC[C@@H](n2ncc(Cl)c2C(=O)Nc2ncc(C#Cc3ccccc3)cc2C)CC1 [Compound 12, 1-(cis-4-acetamidocyclohexyl)-4-chloro-N-(3-methyl-5-(phenylethynyl)pyridin-2-yl)-1H-pyrazole-5-carboxamide]",Rat BHB (% bound),[1],99.7 % bound
same,CLint scaled,[2],103 mL/min/kg
same,IC50,[3],> 30 µM
same,IC50,[4],4.5 µM
same,reversal of MK-801-induced deficits in the Novel Object Recognition Task,[5],dose-dependently reversed; also recorded: caused reversal
same,Kp uu,"[6]; brain, unbound tissue distribution partition coefficient, read-out: Rat brain: plasma Kp, uu",0.19
same,clearance,"[6]; plasma clearance, read-out: Rat CLp",28 mL/min/kg
same,half-life,"[6]; plasma, half-life for elimination, read-out: Rat Elim. t1/2 (converted)",2 h
same,Vd,"[6]; plasma, volume of distribution at steady state, read-out: Rat Vss",4.7 L/kg
same,Mouse PPB (% bound),[7],99.2 % bound
same,Rat PPB (% bound),[8],98.4 % bound
same,IC50,[9],5.7 µM
same,CLint scaled,[10],54 mL/min/kg
